From article PMC3813382 (The Journal of General Physiology, 2013) come the findings set out here.

SMILES strings stand for the structures.

In the experiment the target is T1, Slo2.1 (Homo sapiens, UniProt Q6UVM3).
T1 sequence (Q6UVM3 1-1135): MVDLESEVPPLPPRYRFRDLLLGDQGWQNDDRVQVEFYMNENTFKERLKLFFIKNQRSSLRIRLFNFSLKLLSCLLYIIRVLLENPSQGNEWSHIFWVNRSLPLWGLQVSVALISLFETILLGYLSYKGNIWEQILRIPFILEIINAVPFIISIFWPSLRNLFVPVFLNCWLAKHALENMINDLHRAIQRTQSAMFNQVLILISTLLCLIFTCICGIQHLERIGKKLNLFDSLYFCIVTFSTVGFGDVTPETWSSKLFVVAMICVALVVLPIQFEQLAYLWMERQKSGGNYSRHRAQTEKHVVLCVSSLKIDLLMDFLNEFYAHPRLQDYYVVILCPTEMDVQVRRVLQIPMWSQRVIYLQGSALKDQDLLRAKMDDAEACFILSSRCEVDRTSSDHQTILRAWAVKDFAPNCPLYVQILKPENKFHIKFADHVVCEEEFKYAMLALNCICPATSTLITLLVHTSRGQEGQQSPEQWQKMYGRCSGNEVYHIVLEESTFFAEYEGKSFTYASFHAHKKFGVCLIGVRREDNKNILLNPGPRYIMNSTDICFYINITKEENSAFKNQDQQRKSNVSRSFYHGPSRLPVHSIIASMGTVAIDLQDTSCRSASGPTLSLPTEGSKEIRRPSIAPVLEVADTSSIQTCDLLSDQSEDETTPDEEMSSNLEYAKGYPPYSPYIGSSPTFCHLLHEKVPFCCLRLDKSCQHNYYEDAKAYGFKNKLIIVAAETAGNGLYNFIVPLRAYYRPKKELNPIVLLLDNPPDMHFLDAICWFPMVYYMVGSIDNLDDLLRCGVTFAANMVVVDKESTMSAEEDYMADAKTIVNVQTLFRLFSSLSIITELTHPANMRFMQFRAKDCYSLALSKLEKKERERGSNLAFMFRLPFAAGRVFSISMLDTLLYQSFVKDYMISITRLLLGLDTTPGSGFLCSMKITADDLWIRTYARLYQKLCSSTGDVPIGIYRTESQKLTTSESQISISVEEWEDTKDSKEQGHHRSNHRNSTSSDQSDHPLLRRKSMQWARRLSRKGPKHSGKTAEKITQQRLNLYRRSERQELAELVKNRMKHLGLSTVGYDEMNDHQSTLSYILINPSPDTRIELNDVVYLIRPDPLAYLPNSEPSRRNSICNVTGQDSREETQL
Kind of experiment: Excised inside-out macropatch recordings of ISlo2.1 from oocytes. Particulars: 10 µM in bath (cytosolic) solution. Format: cell-based.

For `CCCCCCCC(=O)OC[C@H](COP(=O)(O)O[C@@H]1[C@H](O)[C@H](O)[C@@H](OP(=O)(O)O)[C@H](OP(=O)(O)O)[C@H]1O)OC(=O)CCCCCCC` [PI(4,5)P2 diC8, phosphatidylinositol 4,5-bisphosphate diC8], the “effect on run-down of macroscopic ISlo2.1 in excised patches” value is listed as “preventable”.
